BindingDB's records for doi:10.1021/jm00007a008 (Glaxo Inc. Research Institute, 1995)
pIC50: −log10 of the molar value.

Assay: In vitro fragmentation of DNA in the presence of excess calf thymus topoisomerase.

**Q.** With `CC[C@@]1(O)C(=O)OCc2c1cc1n(c2=O)Cc2c-1nc1cnc(C#CCN3CCOCC3)cc1c2C` [(S)-4-Ethyl-4-hydroxy-11-methyl-9-(3-morpholin-4-yl-prop-1-ynyl)-1,12-dihydro-4H-2-oxa-6,8,12a-triaza-dibenzo[b,h]fluorene-3,13-dione] as the compound, how does the pIC50 read?
**A.** The pIC50 was 5.95.

**Q.** With `CCc1c2c(nc3cnc(Br)cc13)-c1cc3c(c(=O)n1C2)COC(=O)[C@]3(O)CC` [(S)-9-Bromo-4,11-diethyl-4-hydroxy-1,12-dihydro-4H-2-oxa-6,8,12a-triaza-dibenzo[b,h]fluorene-3,13-dione] as the compound, how does the pIC50 read?
**A.** The pIC50 was 6.91.

**Q.** With `CCc1c2c(nc3cnc(CCCN(C)C)cc13)-c1cc3c(c(=O)n1C2)COC(=O)[C@]3(O)CC` [(S)-9-(3-Dimethylamino-propyl)-4,11-diethyl-4-hydroxy-1,12-dihydro-4H-2-oxa-6,8,12a-triaza-dibenzo[b,h]fluorene-3,13-dione] as the compound, how does the pIC50 read?
**A.** Its pIC50 is 5.83.

**Q.** With `CCOC(=O)c1cc2c(CC)c3c(nc2cn1)-c1cc2c(c(=O)n1C3)COC(=O)[C@]2(O)CC` [(S)-4,11-Diethyl-4-hydroxy-3,13-dioxo-3,4,12,13-tetrahydro-1H-2-oxa-6,8,12a-triaza-dibenzo[b,h]fluorene-9-carboxylic acid ethyl ester] as the compound, how does the pIC50 read?
**A.** The pIC50 was 6.02.

**Q.** With `CCc1c2c(nc3cnc(C(=O)NCCN(C)C)cc13)-c1cc3c(c(=O)n1C2)COC(=O)[C@]3(O)CC` [(S)-4,11-Diethyl-4-hydroxy-3,13-dioxo-3,4,12,13-tetrahydro-1H-2-oxa-6,8,12a-triaza-dibenzo[b,h]fluorene-9-carboxylic acid (2-dimethylamino-ethyl)-amide] as the compound, how does the pIC50 read?
**A.** Its pIC50 is 5.03.

**Q.** With `CCc1c2c(nc3cnc(CN)cc13)-c1cc3c(c(=O)n1C2)COC(=O)[C@]3(O)CC` [(S)-9-Aminomethyl-4,11-diethyl-4-hydroxy-1,12-dihydro-4H-2-oxa-6,8,12a-triaza-dibenzo[b,h]fluorene-3,13-dione] as the compound, how does the pIC50 read?
**A.** The pIC50 was 6.78.

**Q.** With `CCc1c2c(nc3cnc(C#CCN(C)C)cc13)-c1cc3c(c(=O)n1C2)COC(=O)[C@]3(O)CC` [(S)-9-(3-Dimethylamino-prop-1-ynyl)-4,11-diethyl-4-hydroxy-1,12-dihydro-4H-2-oxa-6,8,12a-triaza-dibenzo[b,h]fluorene-3,13-dione] as the compound, how does the pIC50 read?
**A.** Its pIC50 is 5.88.

**Q.** With `CC[C@@]1(O)C(=O)OCc2c1cc1n(c2=O)Cc2c-1nc1c[n+]([O-])c(CNC(=O)OC(C)(C)C)cc1c2C` [((S)-4-Ethyl-4-hydroxy-11-methyl-3,13-dioxo-8-oxy-3,4,12,13-tetrahydro-1H-2-oxa-6,8,12a-triaza-dibenzo[b,h]fluoren-9-ylmethyl)-carbamic acid tert-butyl ester] as the compound, how does the pIC50 read?
**A.** The pIC50 was 6.66.

**Q.** With `CC[C@@]1(O)C(=O)OCc2c1cc1n(c2=O)Cc2c-1nc1cnc(C#CCN)cc1c2C` [(S)-9-(3-Amino-prop-1-ynyl)-4-ethyl-4-hydroxy-11-methyl-1,12-dihydro-4H-2-oxa-6,8,12a-triaza-dibenzo[b,h]fluorene-3,13-dione] as the compound, how does the pIC50 read?
**A.** The pIC50 was 6.30.

**Q.** With `CCc1c2c(nc3cnccc13)-c1cc3c(c(=O)n1C2)COC(=O)[C@]3(O)CC` [(S)-4,11-Diethyl-4-hydroxy-1,12-dihydro-4H-2-oxa-6,8,12a-triaza-dibenzo[b,h]fluorene-3,13-dione] as the compound, how does the pIC50 read?
**A.** The pIC50 was 6.47.

**Q.** With `CC[C@@]1(O)C(=O)OCc2c1cc1n(c2=O)Cc2cc3ccncc3nc2-1` [(S)-4-Ethyl-4-hydroxy-1,12-dihydro-4H-2-oxa-6,8,12a-triaza-dibenzo[b,h]fluorene-3,13-dione] as the compound, how does the pIC50 read?
**A.** The pIC50 was 6.42.

**Q.** With `CC[C@@]1(O)C(=O)OCc2c1cc1n(c2=O)Cc2cc3cc[n+]([O-])cc3nc2-1` [(S)-4-Ethyl-4-hydroxy-8-oxy-1,12-dihydro-4H-2-oxa-6,8,12a-triaza-dibenzo[b,h]fluorene-3,13-dione] as the compound, how does the pIC50 read?
**A.** Its pIC50 is 5.93.

**Q.** With `CCc1c2c(nc3cnc(C#N)cc13)-c1cc3c(c(=O)n1C2)COC(=O)[C@]3(O)CC` [(S)-4,11-Diethyl-4-hydroxy-3,13-dioxo-3,4,12,13-tetrahydro-1H-2-oxa-6,8,12a-triaza-dibenzo[b,h]fluorene-9-carbonitrile] as the compound, how does the pIC50 read?
**A.** Its pIC50 is 6.57.

Assay: Minimum concentration that produced 50% fragmentation of DNA was measured in the presence of excess calf thymus topoisomerase.

**Q.** With `CC[C@@]1(O)C(=O)OCc2c1cc1n(c2=O)Cc2c-1nc1cnc(CN)cc1c2C` [(S)-9-Aminomethyl-4-ethyl-4-hydroxy-11-methyl-1,12-dihydro-4H-2-oxa-6,8,12a-triaza-dibenzo[b,h]fluorene-3,13-dione] as the compound, how does the pIC50 read?
**A.** Its pIC50 is 6.63.

**Q.** With `CCc1c2c(nc3cnc(C(=N)N)cc13)-c1cc3c(c(=O)n1C2)COC(=O)[C@]3(O)CC` [(S)-4,11-Diethyl-4-hydroxy-3,13-dioxo-3,4,12,13-tetrahydro-1H-2-oxa-6,8,12a-triaza-dibenzo[b,h]fluorene-9-carboxamidine] as the compound, how does the pIC50 read?
**A.** The pIC50 was 7.48.

**Q.** With `CCc1c2c(nc3cnc(C#CCN)cc13)-c1cc3c(c(=O)n1C2)COC(=O)[C@]3(O)CC` [(S)-9-(3-Amino-prop-1-ynyl)-4,11-diethyl-4-hydroxy-1,12-dihydro-4H-2-oxa-6,8,12a-triaza-dibenzo[b,h]fluorene-3,13-dione] as the compound, how does the pIC50 read?
**A.** Its pIC50 is 5.97.

**Q.** With `CC[C@@]1(O)C(=O)OCc2c1cc1n(c2=O)Cc2c-1nc1c[n+]([O-])c(CN)cc1c2C` [(S)-9-Aminomethyl-4-ethyl-4-hydroxy-11-methyl-8-oxy-1,12-dihydro-4H-2-oxa-6,8,12a-triaza-dibenzo[b,h]fluorene-3,13-dione] as the compound, how does the pIC50 read?
**A.** The pIC50 was 6.72.

**Q.** With `CCc1c2c(nc3c[n+](C)ccc13)-c1cc3c(c(=O)n1C2)COC(=O)[C@]3(O)CC` [(S)-4,11-Diethyl-4-hydroxy-8-methyl-3,13-dioxo-3,4,12,13-tetrahydro-1H-2-oxa-6,12a-diaza-8-azonia-dibenzo[b,h]fluorene; iodide] as the compound, how does the pIC50 read?
**A.** The pIC50 was 5.84.

**Q.** With `CCc1c2c(nc3cnc(C(=N)NO)cc13)-c1cc3c(c(=O)n1C2)COC(=O)[C@]3(O)CC` [(S)-4,11-Diethyl-4,N-dihydroxy-3,13-dioxo-3,4,12,13-tetrahydro-1H-2-oxa-6,8,12a-triaza-dibenzo[b,h]fluorene-9-carboxamidine] as the compound, how does the pIC50 read?
**A.** The pIC50 was 7.15.
